The results in this text go back to patent US8563553B2, “Compounds and compositions as protein kinase inhibitors” (Novartis AG, priority 2009, dated 2013).

This experiment deals with b-Raf(V600E) (Homo sapiens (Human), UniProt P15056, V600E). The experiment is described as follows: Raf/Mek Amplified Luminescence Proximity Homogeneous Assay (Alpha Screen). Format: biochemical. As to conditions: b-Raf(V600E) approximately 4 pM; biotinylated Mek, kinase dead approximately 10 nM; ATP 10 μM; pre-incubation 60 minutes; reaction 3 hours at room temperature; read-out: mut-B-RAF IC50. Put shortly: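 Raf pre-incubated with compound and kinase-dead biotinylated Mek (~10 nM) for 60 min, room temperature, in 50 mM Tris pH 7.5, 15 mM MgCl2, 0.01% BSA, 1 mM DTT; ATP-started reaction 1 or 3 h, EDTA stop. Phospho-MEK detected by anti-p-MEK1/2 AlphaScreen; IC50 by non-linear regression.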
b-Raf(V600E), sequence (P15056 whole entry V600E): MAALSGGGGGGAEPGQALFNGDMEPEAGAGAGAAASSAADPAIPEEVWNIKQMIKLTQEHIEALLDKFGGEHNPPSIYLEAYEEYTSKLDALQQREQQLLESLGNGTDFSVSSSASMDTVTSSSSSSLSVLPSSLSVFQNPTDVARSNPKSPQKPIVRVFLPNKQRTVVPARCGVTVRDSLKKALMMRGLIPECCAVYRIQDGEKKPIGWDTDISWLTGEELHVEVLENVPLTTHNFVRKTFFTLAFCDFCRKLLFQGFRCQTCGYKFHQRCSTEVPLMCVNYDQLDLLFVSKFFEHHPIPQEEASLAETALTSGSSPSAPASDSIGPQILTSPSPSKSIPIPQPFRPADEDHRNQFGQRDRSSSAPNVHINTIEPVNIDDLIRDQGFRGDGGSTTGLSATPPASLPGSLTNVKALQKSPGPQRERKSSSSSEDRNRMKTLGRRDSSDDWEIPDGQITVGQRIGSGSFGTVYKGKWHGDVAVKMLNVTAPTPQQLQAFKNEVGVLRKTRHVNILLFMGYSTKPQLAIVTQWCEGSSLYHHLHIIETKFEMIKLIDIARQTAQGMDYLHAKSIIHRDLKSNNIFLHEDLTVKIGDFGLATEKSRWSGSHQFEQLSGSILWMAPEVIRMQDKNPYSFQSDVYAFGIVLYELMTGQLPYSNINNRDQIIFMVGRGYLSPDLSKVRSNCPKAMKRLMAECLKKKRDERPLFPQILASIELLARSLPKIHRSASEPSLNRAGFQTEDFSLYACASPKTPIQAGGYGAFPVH
Regarding `Nc1nccc(-c2[nH]c(C3CC3)nc2-c2cc(F)cc(NS(=O)(=O)c3c(F)cccc3F)c2Cl)n1` [Example 1BR, N-(3-(5-(2-Aminopyrimidin-4-yl)-2-cyclopropyl-1H-imidazol-4-yl)-2-chloro-5-fluorophenyl)-2,6-difluorobenzenesulfonamide], the concentration for half-maximal inhibition (IC50) (commonly the concentration needed to halve the response being measured) is 0.19 nM.

In the case of `COC(=O)N[C@@H](C)CNc1nccc(-c2[nH]c(C3CC3)nc2-c2cc(Cl)cc(NS(C)(=O)=O)c2F)n1` [Example 1A, (S)-methyl 1-(4-(4-(5-chloro-2-fluoro-3-(methylsulfonamido)phenyl)-2-cyclopropyl-1H-imidazol-5-yl)pyrimidin-2-ylamino)propan-2-ylcarbamate], the IC50 was 0.2 nM.

With `CNc1nccc(-c2[nH]c(C3CC3)nc2-c2cc(F)cc(NS(C)(=O)=O)c2Cl)n1` [Example 1BW, N-(2-Chloro-3-(2-cyclopropyl-5-(2-(methylamino)pyrimidin-4-yl)-1H-imidazol-4-yl)-5-fluorophenyl)methanesulfonamide], the IC50 worked out at 31 nM.

On to `COC(=O)N[C@@H](C)CNc1nccc(-c2[nH]c(C(C)(C)C)nc2-c2cc(F)cc(NS(C)(=O)=O)c2Cl)n1` [Example 1AG, (S)-Methyl 1-(4-(2-tert-butyl-4-(2-chloro-5-fluoro-3-(methylsulfonamido)phenyl)-1H-imidazol-5-yl)pyrimidin-2-ylamino)propan-2-ylcarbamate], for which the IC50 turned out to be 1 nM.

As for `COC(=O)N[C@@H](C)CNc1nccc(-c2[nH]c(C(C)(C)C)nc2-c2cc(Cl)cc(NS(C)(=O)=O)c2)n1` [Example 1C, (S)-Methyl 1-(4-(2-tert-butyl-4-(3-chloro-5-(methylsulfonamido)phenyl)-1H-imidazol-5-yl)pyrimidin-2-ylamino)propan-2-ylcarbamate], the IC50 is 0.32 nM.

As to `CCCS(=O)(=O)Nc1cc(Cl)cc(-c2nc(C(C)(C)C)[nH]c2-c2ccnc(NC[C@H](C)NC(=O)OC)n2)c1` [Example 1E, (S)-methyl 1-(4-(2-tert-butyl-4-(3-chloro-5-(propylsulfonamido)phenyl)-1H-imidazol-5-yl)pyrimidin-2-ylamino)propan-2-ylcarbamate], the IC50 turned out to be 0.1 nM.

Regarding `COC(=O)N[C@@H](C)CNc1nccc(-c2nc(C3CC3)[nH]c2-c2cc(Cl)cc(NS(=O)(=O)c3ccc(F)cc3)c2F)n1` [Example 1AW], the IC50 came to 1 nM.

Regarding `CCCS(=O)(=O)Nc1cccc(-c2nc(C3CC3)[nH]c2-c2ccnc(NCCC(N)=O)n2)c1F` [Example 4H, 3-(4-(2-Cyclopropyl-4-(2-fluoro-3-(propylsulfonamido)phenyl)-1H-imidazol-5-yl)pyrimidin-2-ylamino)propanamide], the IC50 came to 2 nM.

For the compound `COC(=O)N[C@@H](C)CNc1nccc(-c2[nH]c(-c3ccc(C(F)(F)F)cc3)nc2-c2cc(F)cc(NS(C)(=O)=O)c2Cl)n1` [Example 1BZ, (S)-Methyl 1-(4-(4-(2-chloro-5-fluoro-3-(methylsulfonamido)phenyl)-2-(4-(trifluoromethyl)phenyl)-1H-imidazol-5-yl)pyrimidin-2-ylamino)propan-2-ylcarbamate], the IC50 worked out at 2 nM.

In the case of `CCCNc1nccc(-c2[nH]c(C3CC3)nc2-c2cc(F)cc(NS(=O)(=O)CCC)c2Cl)n1` [Example 1AN, N-(2-Chloro-3-(2-cyclopropyl-5-(2-(propylamino)pyrimidin-4-yl)-1H-imidazol-4-yl)-5-fluorophenyl)propane-1-sulfonamide], the concentration for half-maximal inhibition (IC50) was found to be 0.39 nM.

For the compound `CCCS(=O)(=O)Nc1cccc(-c2nc(C3CC3)[nH]c2-c2ccnc(NC[C@H](C)NC(=O)OC)n2)c1Cl` [Example 4A-3, (S)-methyl 1-(4-(4-(2-chloro-3-(propylsulfonamido)phenyl)-2-cyclopropyl-1H-imidazol-5-yl)pyrimidin-2-ylamino)propan-2-ylcarbamate], the IC50 was found to be 0.13 nM.
